Patent publication US12180187B2, “1-phenyl-5-azinylpyrazolyl-3-oxyalkyl acids and their use for controlling unwanted plant growth” (BAYER AKTIENGESELLSCHAFT, priority 2019, dated 2024)

Key:
POAAN [1] = assay: Post-emergence action against POAAN, 1.28 kg/ha; type: in vivo, Poa annua; conditions: dosage 1280 g/ha, visual rating about 3 weeks after treatment vs untreated controls
In short: (§1)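 Post-emergence greenhouse spray, one-leaf stage (2–3 wk after sowing), sandy loam. WP/EC, aqueous + 0.5% additive, 600 L/ha water. Visual % activity vs untreated, ~3 wk after treatment; 100% = plants dead.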

ABUTH [2] = assay: Post-emergence action against ABUTH, 1.28 kg/ha; type: in vivo, Abutilon theophrasti; conditions: dosage 1280 g/ha, visual rating about 3 weeks after treatment vs untreated controls (100% = plants died)
In short: as §1

AMARE [3] = assay: Pre-emergence action against AMARE, 1280 g/ha; type: in vivo, Amaranthus retroflexus; conditions: scored visually after about 3 weeks vs untreated controls (100% = plants have died)
In short: (§2)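 Compound applied as WP or EC in aqueous spray (0.5% additive, 600 L/ha) to the surface of sandy loam covering freshly sown seeds. After about 3 weeks under good greenhouse conditions, damage is given as visual percentage, 100% meaning plant death.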

ABUTH [4] = assay: Pre-emergence action against ABUTH, 1280 g/ha; type: in vivo, Abutilon theophrasti; conditions: scored visually after about 3 weeks vs untreated controls (100% = plants have died)
In short: as §2

SETVI [5] = assay: Pre-emergence action at 320 g/ha against SETVI; type: in vivo, Setaria viridis; conditions: visual scoring after about 3 weeks vs untreated controls
In short: (§3)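 Effect rated visually (% vs untreated control) about 3 weeks after pre-emergence spraying of WP/EC formulation onto soil; spray carried 0.5% additive at 600 l/ha water.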

SETVI [6] = assay: Pre-emergence action against SETVI, 1280 g/ha; type: in vivo, Setaria viridis; conditions: visual scoring after about 3 weeks vs untreated controls, 100% = plants have died, 0% = like control plants
In short: as §2

STEME [7] = assay: Pre-emergence action against STEME, 1280 g/ha; type: in vivo, Stellaria media; conditions: scored visually after about 3 weeks vs untreated controls (100% = plants have died)
In short: as §2

ALOMY = assay: Pre-emergence action at 320 g/ha against ALOMY; type: in vivo, Alopecurus myosuroides; conditions: scored visually after about 3 weeks vs untreated controls (100% = plants have died)
In short: as §3

POAAN [8] = assay: Pre-emergence action against POAAN, 1280 g/ha; type: in vivo, Poa annua; conditions: visual scoring after about 3 weeks vs untreated controls, 100% = plants have died, 0% = like control plants
In short: as §2

AMARE [9] = assay: Pre-emergence action at 320 g/ha against AMARE; type: in vivo, Amaranthus retroflexus; conditions: visual scoring after about 3 weeks vs untreated controls
In short: as §3

STEME [10] = assay: Post-emergence action against STEME, 1.28 kg/ha; type: in vivo, Stellaria media; conditions: dosage 1280 g/ha, visual rating about 3 weeks after treatment vs untreated controls (100% = plants died)
In short: as §1

MATIN = assay: Pre-emergence action against MATIN, 1280 g/ha; type: in vivo, Tripleurospermum inodorum (Matricaria inodora); conditions: scored visually after about 3 weeks vs untreated controls (100% = plants have died)
In short: as §2

ECHCG = assay: Pre-emergence action against ECHCG, 1280 g/ha; type: in vivo, Echinochloa crus-galli; conditions: visual scoring after about 3 weeks vs untreated controls, 100% = plants have died, 0% = like control plants
In short: as §2

DIGSA = assay: Pre-emergence action at 320 g/ha against DIGSA; type: in vivo, Digitaria sanguinalis; conditions: visual scoring after about 3 weeks vs untreated controls
In short: as §3

POLCO = assay: Pre-emergence action at 320 g/ha against POLCO; type: in vivo, Fallopia convolvulus (Polygonum convolvulus); conditions: visual scoring after about 3 weeks vs untreated controls
In short: as §3

| Structure (SMILES) | Post-emergence action against POAAN (POAAN [1]) | Post-emergence action against ABUTH (ABUTH [2]) | Pre-emergence action against AMARE (AMARE [3]) | Pre-emergence action against ABUTH (ABUTH [4]) | Pre-emergence action against SETVI in % (SETVI [5]) | Pre-emergence action against SETVI (SETVI [6]) | Pre-emergence action against STEME (STEME [7]) | Pre-emergence action at 320 g/ha against ALOMY in % (ALOMY) | Pre-emergence action against POAAN (POAAN [8]) | Pre-emergence action against AMARE in % (AMARE [9]) | Post-emergence action against STEME (STEME [10]) | Pre-emergence action against MATIN (MATIN) | Pre-emergence action against ECHCG (ECHCG) | Pre-emergence action against DIGSA in % (DIGSA) | Pre-emergence action against POLCO in % (POLCO) | further results |
| --- | --- | --- | --- | --- | --- | --- | --- | --- | --- | --- | --- | --- | --- | --- | --- | --- |
| COC(=O)CNC(=O)COc1nn(-c2ccccc2F)c(-c2ccc(F)nc2)c1C(F)(F)F [Example X-007] | 100% | 90% | 100% | 90% | 100% | 100% | 100% | 100% | 100% | 100% | 100% | 100% | 100% | 100% | 90% | – |
| COC(=O)COc1nn(-c2ccccc2F)c(-c2cncnc2)c1Br [VI-004, Methyl {[4-bromo-1-(2-fluorophenyl)-5-(pyrimidin-5-yl)-1H-pyrazol-3-yl]oxy}acetate] | – | 90% | – | 90% | – | – | – | – | – | – | 90% | – | – | – | – | pest or weed control at 1280 g/ha (POAAN [1]; Poa annua, 504 h): 100%; pest or weed control at 1280 g/ha (AMARE [3]; Amaranthus retroflexus, 504 h): 100%; pest or weed control at 320 g/ha (SETVI [5]; Setaria viridis, 504 h): 90%; pest or weed control at 1280 g/ha (SETVI [6]; Setaria viridis, 504 h): 100%; pest or weed control at 1280 g/ha (STEME [7]; Stellaria media, 504 h): 100%; pest or weed control at 320 g/ha (ALOMY; Alopecurus myosuroides, 504 h): 100%; pest or weed control at 1280 g/ha (POAAN [8]; Poa annua, 504 h): 100%; pest or weed control at 320 g/ha (AMARE [9]; Amaranthus retroflexus, 504 h): 100%; pest or weed control at 1280 g/ha (MATIN; Tripleurospermum inodorum, 504 h): 100%; pest or weed control at 1280 g/ha (ECHCG; Echinochloa crus-galli, 504 h): 100%; pest or weed control at 320 g/ha (DIGSA; Digitaria sanguinalis, 504 h): 100%; pest or weed control at 320 g/ha (POLCO; Fallopia convolvulus, 504 h): 90% |
| COC(=O)[C@@H](C)Oc1nn(-c2ccccc2)c(-c2cncnc2)c1Br [VI-013] | 100% | 90% | 100% | 90% | 100% | 100% | 100% | 90% | 100% | 90% | 100% | 90% | 100% | 100% | 90% | – |
| COC(=O)[C@@H](C)Oc1nn(-c2ccccc2)c(-c2cccnc2)c1Br [VII-008] | 100% | 90% | 100% | 90% | 100% | 100% | 100% | 100% | 100% | 100% | 100% | 100% | 100% | 90% | 100% | – |
| CCC(Oc1nn(-c2ccccc2F)c(-c2ccc(F)nc2)c1Br)C(=O)OC (centres unmarked) [VII-029] | 100% | – | 100% | 90% | 90% | 100% | 100% | 90% | 100% | 100% | 100% | 100% | 100% | 100% | 100% | – |
| COC(=O)[C@@H](C)Oc1nn(-c2cc(F)ccc2F)c(-c2ccc(F)nc2)c1Br [VII-062] | 100% | – | 100% | 90% | 100% | 100% | 100% | 100% | 100% | 100% | 100% | 100% | 100% | 100% | 100% | – |
| COC(=O)[C@@H](C)Oc1nn(-c2cc(F)ccc2F)c(-c2cncc(F)c2)c1Br [VII-132] | 100% | 90% | 100% | 90% | 100% | 100% | 100% | 100% | 100% | 100% | – | 100% | 100% | 100% | 100% | – |
| COC(=O)[C@@H](C)Oc1nn(-c2ccccc2F)c(-c2ccnc(F)c2)c1Br [VIII-006] | 100% | – | 100% | 90% | 100% | 100% | 100% | 100% | 100% | 100% | 100% | 100% | 100% | 100% | 90% | – |
